Assay results: patent publication US11622967B2 (SUVEN LIFE SCIENCES LIMITED, priority 2018, dated 2023)
Where a name gives a salt, the structure may show the parent alone.

Key:
male Wistar rats = assay: Sleep and wake profile by telemetric EEG in male Wistar rats; type: in vivo, rat; conditions: 10 and 30 mg/kg, p.o., first 4 hours post dosing (FIG. 2)
Excerpt: (§1) Rats were anesthetized with isoflurane (Baxter India Private Limited; 4% in oxygen for induction; 2% for maintenance) and were fixed into the stereotaxic frame (Stoelting, Ill., USA) to perform surgery. An incision was made to reveal bregma from which coordinates were taken. Telemetric transmitter (Model F40-EET; DSI, St. Paul, Minn., USA) was implanted into intraperitoneal cavity of the rat and leads were tunneled subcutaneously to head. One pair of electrodes were implanted epidurally into the frontal cortex region using stainless steel screws (CMA Microdialysis, Stockholm, Sweden) at coordinates of AP+2.0 mm, ML±2.2 mm (Paxinos and Watson, 2004) for recording of EEG and electrodes were fixed to the skull with dental acrylic cement (DENTALON® plus). The second set of lead wires was implanted into the neck nuchal muscle to record electromyogram (EMG). Incision was closed using non absorbable sutures. After a surgical recovery of minimum 2 weeks, animals were acclimatized to the handling procedures and were given a mock dosing for 3 days before the first experimental day.
On the day of study, transmitter was switched on using magnet and animals were transferred on to the receiver along with the home cage. […]
(§2) Statistical analysis: EEG data was scored with automated standard sleep scoring protocols using Neuroscore. […]

[1] = system: cortical histamine levels; assay: Histamine modulation in prefrontal cortex, microdialysis; type: in vivo, rat
Excerpt: (§3) Male Wistar rats (240-300 g body weight) were stereotaxically implanted with a microdialysis guide cannula in prefrontal cortex (PFC; AP: +3.2 mm, ML: −0.5 mm, DV: −1.0 mm) under isoflurane anesthesia. Co-ordinates were taken according to atlas for the rat brain (Paxinos and Watson 2004) with reference points taken from bregma and vertical from the skull. The rats were allowed to recover individually for four days in a round bottom Plexiglas bowl with free access to feed and water.
(§4) After surgical recovery of 4 days, male Wistar rats were connected to dual quartz lined two-channel liquid swivel (Instech, UK) on a counter balance lever arm, which allowed unrestricted movements of the animal. […]
Quantitation of histamine: Histamine concentrations in dialysates were quantified using post-column derivatization with o-phthalaldehyde employing HPLC coupled to fluorescence detector and analysis was carried out in the calibration range of 33-640 fmol/20 μL
Statistical analysis: All microdialysis data for histamine was plotted as percent change from mean dialysate basal concentrations with 100% defined as the average of five pre-dose values. […] Area under the curve (AUC) values for percent change in histamine levels were calculated and the statistical significance between the mean AUC value were compared against vehicle treatment using one-way ANOVA followed by Dunnett's test. […]

[2] = system: cortical levels of dopamine and norepinephrine; assay: Dopamine and norepinephrine modulation in prefrontal cortex, microdialysis; type: in vivo, rat; conditions: male Wistar rats, 3-30 mg/kg, p.o. (FIG. 7)
Excerpt: as §3, §4
Quantitation of dopamine and norepinephrine: Monoamines in dialysate were derivatized with dansyl chloride and quantified using LC-MS/MS based method in calibration ranges of 0.07-15 nmol/L for all […] analytes.
Statistical analysis: All microdialysis data for dopamine and norepinephrine were plotted as percent change from mean dialysate basal concentrations with 100% defined as the average of four pre-dose values. […] Area under the curve (AUC) values for percent change in neurotransmitter levels were calculated and the statistical significance between the mean AUC value were compared against vehicle treatment using one-way ANOVA followed by Dunnett's test. […]

male C57BL/6J mice = assay: Sleep and wake profile by telemetric EEG in male C57BL/6J mice; type: in vivo, mouse; conditions: 10 and 30 mg/kg, p.o., first 4 hours post dosing (FIG. 3)
Excerpt: Mice were anesthetized with isoflurane (Baxter India Private Limited; 4% in oxygen for induction; 2% for maintenance) and were fixed into the stereotaxic frame (Stoelting, Ill., USA) to perform surgery. An incision was made to reveal bregma from which coordinates were taken. Telemetric transmitter (Model F20-EET; DSI, St. Paul, Minn., USA) was implanted into intraperitoneal cavity of the […] and leads were tunneled subcutaneously to head. One pair of flexible spring electrodes were implanted epidurally into the frontal cortex region at coordinates of AP+1.0 mm, ML±2.0 mm (Franklin and Paxinos, 20074) for recording of EEG and electrodes were fixed to the skull with dental acrylic cement (DENTALON® plus). The second set of lead wires was implanted into the neck nuchal muscle to record EMG. Incision was closed using non absorbable sutures. After a surgical recovery of minimum 2 weeks, animals were acclimatized to the handling procedures and were given a mock dosing for 3 days before the first experimental day.
On the day of study, transmitter was switched on using magnet and animals were transferred on to the receiver along with the home cage. Recording was started 3 h after the lights-on using Ponemah (Version 5.2) software. […] Recording was continued for 6 h post treatment. […]
as §2

[3] = target: histamine-3 receptor (in-vivo) (Rattus norvegicus (Rat), UniProt Q9QYN8); assay: (R)-α-methylhistamine induced dipsogenia assay; conditions: rats, oral, RAMH 2.5 mg/kg s.c.
Sequence of histamine-3 receptor (in-vivo) (Q9QYN8 whole entry): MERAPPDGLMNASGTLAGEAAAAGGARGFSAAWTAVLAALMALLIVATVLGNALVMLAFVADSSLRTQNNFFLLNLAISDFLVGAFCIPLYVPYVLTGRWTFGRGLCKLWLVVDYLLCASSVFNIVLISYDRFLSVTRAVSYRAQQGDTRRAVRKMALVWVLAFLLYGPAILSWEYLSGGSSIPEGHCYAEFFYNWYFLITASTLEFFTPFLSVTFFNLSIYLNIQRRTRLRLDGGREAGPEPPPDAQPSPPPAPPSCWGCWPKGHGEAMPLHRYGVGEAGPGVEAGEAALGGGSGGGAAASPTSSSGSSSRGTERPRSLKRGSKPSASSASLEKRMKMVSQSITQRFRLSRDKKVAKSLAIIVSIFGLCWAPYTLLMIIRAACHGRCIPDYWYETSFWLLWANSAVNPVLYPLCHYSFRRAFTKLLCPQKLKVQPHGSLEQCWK
Protocol: The experiment consisted of 3 days. The animals were individually housed in their home cages. 24 h water consumption was recorded for 2 days. Rats were randomized according to average of 2 days water consumption. […] Statistical analysis: Data was compared and assessed by one-way ANOVA followed by Dunnett's post hoc test by using graph pad prism software package.

[4] = system: orexin-B-saporin lesioned male Wistar rats; assay: Sleep and wake profile by telemetric EEG in orexin-B-saporin lesioned rats (narcolepsy model); type: in vivo, rat
Protocol: Rats were anesthetized with 4% isoflurane (Baxter India Private Limited) and maintained on 2% isoflurane for entire duration of surgery. Under isoflurane anesthesia, rats were placed into a stereotaxic instrument and received bilateral microinjections of 0.5 μL containing 490 ng of orexin-B-saporin conjugate (Advanced Targeting System, San Diego, Calif., USA) or saline solution in the lateral hypothalamus (coordinates: AP: −3.5 mm; ML: ±1.5 mm; DV: −8.7 mm).^3 Microinjections were performed using a glass micropipette (20 μm at the tip). Analgesic and antibiotic treatment were administered at the end of this procedure.
as §1, with “After injection of” for “Rats were anesthetized with isoflurane (Baxter India Private Limited; 4% in oxygen for induction; 2% for maintenance) and were fixed into”, “orexin-B-Saporin, telemetric” for “stereotaxic frame (Stoelting, Ill., USA) to perform surgery. An incision was made to reveal bregma from which coordinates were taken. Telemetric”, “2004)^3” for “2004)”, “EMG.” for “electromyogram (EMG).”, “about 3” for “minimum 2”
On the day of study, transmitter was switched on using magnet and animals were transferred on to the receiver along with the home cage. Recording was started 1 h before lights-off using Ponemah (Version 5.2) software. […] Recording was continued for 8 h post treatment. EEG and EMG were collected as primary signals and sampled at 500 Hz. Whereas, temperature and activity were sampled at 250 Hz. The data was stored for off-line analysis using NeuroScore software (Version 3.0).
Statistical analysis: EEG data was scored with automated standard sleep scoring protocols using Neuroscore. Rodent EEG and EMG data was manually classified into one of three sleep/wake states: awake, REM (Rapid eye movement/Paradoxical sleep), or NREM (Non-rapid eye movement/slow wave sleep) according to visual analysis of EEG frequency and amplitude characteristics and EMG activity using 10 s epochs. Waking activity was defined as relatively low-amplitude EEG activity with low power in the low-frequency bands, accompanied by moderate to high level EMG activity. NREM was defined as generally high-amplitude EEG activity with greater power in the low-frequency bands from 0.5-4 Hz, accompanied by minimal EMG activity. REM sleep was characterized by moderate and constant amplitude EEG activity focused in the θ (6-9 Hz) range with no (or only sporadic) EMG activity. […]

For O=C(CN1CCOCC1)Nc1ccc(OC2CCN(C3CCC3)CC2)cc1 [SUVN-G3031, N-[4-(1-Cyclobutylpiperidin-4-yloxy)phenyl]-2-(morpholin-4-yl)acetamidedihydrochloride], the “time spent in wake period compared to vehicle” value (male Wistar rats) was “significantly increased”, the “mean AUC of percent change in histamine levels compared to vehicle” value ([1]; male Wistar rats, 0.3, 1 and 10 mg/kg, p.o. (FIG. 6)) was “statistically significant” and the cortical histamine levels ([1]; male Wistar rats, 0.3-10 mg/kg, p.o.) was “significant increase”. The “cortical levels of dopamine” value [2] was “significant increase”, the “cortical levels of norepinephrine” value [2] was “significant increase” and the “time spent in wake period compared to vehicle” value (male C57BL/6J mice) was “significant increase”. For the same compound, the “effect on (R)-α-methylhistamine induced dipsogenia (water consumption)” value ([3]; at 60 min (FIG. 1a)) was “blocked”, the “effect on (R)-α-methylhistamine induced dipsogenia (water consumption)” value ([3]; at 120 min (FIG. 1b)) was “blocked” and the “cataplectic (direct transition of wake to REM) episodes” value ([4]; orexin-B-saporin lesioned rats (FIG. 5)) was “decreased”. The “wake period compared to vehicle” value ([4]; orexin-B-saporin lesioned rats, first 4 hours post dosing (FIG. 4a)) was “significant increase”, the REM sleep ([4]; orexin-B-saporin lesioned rats, first 4 hours post dosing (FIG. 4b)) was “significant decrease” and the NREM sleep ([4]; orexin-B-saporin lesioned rats, first 4 hours post dosing (FIG. 4c)) was “no effect”.
